The test system of this experiment is muscle progenitors derived from DMD hiPSC. In words: Myotube assay: total myotube area per well (alpha-actinin staining). Conditions: Homo sapiens, Myotube, 72 h, DMD or WT cell source not given; for Emax: efficacy, MA = normalized Myotube Area, 3 days incubation; for EC50: myogenic activity, half-maximal generation of myotubes, 10 points dose-response 1.5 nM to 30 µM, 3 days. The format is cell-based, human. Put shortly:
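DMD hiPSC-derived muscle progenitors (NCRM-1 background) plated at 3500 cells/well in K5 medium with 5 µM Y-27632, then exposed to compound at 1.5 nM–30 µM for 3 days at 37°C. Cells fixed on day 7, alpha-actinin-immunostained and total myotube area per well quantified; duplicates averaged, EC50 and normalized myotube area derived.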

The record followed here is patent publication EP4029501A1, “COMBINATION OF POLYAROMATIC UREA DERIVATIVES AND GLUCOCORTICOID OR HDAC INHIBITOR FOR THE TREATMENT OF DISEASES OR CONDITIONS ASSOCIATED WITH MUSCLE CELLS AND/OR SATELLITE CELLS” (Anagenesis Biotechnologies, priority 2021, dated 2022).

Take `CSc1cc(Oc2ccnc3[nH]c(=O)cnc23)ccc1NC(=O)Nc1cc(C(C)(C)C)on1` [(dh), 1-(5-(tert-butyl)isoxazol-3-yl)-3-(2-(methylthio)-4-((3-oxo-3,4-dihydropyrido[2,3-b]pyrazin-8-yl)oxy)phenyl)urea]: the Emax (in general, the greatest response seen or fitted, relative to the assay's reference) was not below 75% and the 50% effective concentration (EC50) (in general, the concentration needed to bring the measured effect to its halfway point) was in the range of 1 to 5 µM.
The molecule `CCOC(=O)Nc1cc(Oc2ccc(NC(=O)Nc3cc(C(C)(C)C)on3)c(SC)c2)ccn1` [(di), ethyl (4-(4-(3-(5-(tert-butyl)isoxazol-3-yl)ureido)-3-(methylthio)phenoxy)pyridin-2-yl)carbamate] showed an Emax not below 75% and an EC50 of less than 0.5 µM.
Taken in the same sequence, the figures for `CC(=O)Nc1cc(Oc2ccc(NC(=O)Nc3cc(C(C)(C)C)nn3-c3ccccc3)c3ccccc23)ccn1` [(dj), N-(4-((4-(3-(3-(tert-butyl)-1-phenyl-1H-pyrazol-5-yl)ureido)naphthalen-1-yl)oxy)pyridin-2-yl)acetamide] were not below 75% and less than 0.5 µM.
On the same counts, the results for `CSc1cc(Oc2ccncc2)ccc1NC(=O)Nc1cc(C(C)(C)C)nn1-c1ccccc1` [(dk), 1-(3-(tert-butyl)-1-phenyl-1 H-pyrazol-5-yl)-3-(2-(methylthio)-4-(pyridin-4-yloxy)phenyl)urea] are 25 to 50% and not below 5 µM.
On the same counts, the results for `CSc1cc(Oc2ccnc(NS(C)(=O)=O)c2)ccc1NC(=O)Nc1cc(C(C)(C)C)no1` [(dl), N-(4-(4-(3-(3-(tert-butyl)isoxazol-5-yl)ureido)-3-(methylthio)phenoxy)pyridin-2-yl)methanesulfonamide] are not below 75% and 1 to 5 µM.
Regarding `CSc1cc(Oc2ccnc3[nH]c(=O)[nH]c23)ccc1NC(=O)Nc1cc(C(C)(C)C)nn1-c1ccccc1` [(dm), 1-(3-(tert-butyl)-1-phenyl-1H-pyrazol-5-yl)-3-(2-(methylthio)-4-((2-oxo-2,3-dihydro-1H-imidazo[4,5-b]pyridin-7-yl)oxy)phenyl)urea], the Emax was not below 75% and the EC50 fell in the range of 1 to 5 µM.
Taken in the same sequence, the figures for `CSc1cc(NC(=O)Nc2cc(C(C)(C)C)nn2-c2ccccc2)ccc1Oc1ccnc2[nH]c(=O)cnc12` [(dn), 1-(3-(tert-butyl)-1-phenyl-1H-pyrazol-5-yl)-3-(3-(methylthio)-4-((3-oxo-3,4-dihydropyrido[2,3-b]pyrazin-8-yl)oxy)phenyl)urea] were not below 75% and 0.5 to 1 µM.
Taken in the same sequence, the figures for `CSc1cc(Oc2ccnc3[nH]c(=O)ccc23)ccc1NC(=O)Nc1cc(C(C)(C)C)nn1-c1ccccc1` [(do), 1-(3-(tert-butyl)-1-phenyl-1H-pyrazol-5-yl)-3-(2-(methylthio)-4-((7-oxo-7,8-dihydro-1,8-naphthyridin-4-yl)oxy)phenyl)urea] were not below 75% and less than 0.5 µM.
Taken in the same sequence, the figures for `CSc1cc(Oc2ccnc3[nH]c(=O)cnc23)ccc1NC(=O)Nc1cc(C(C)(C)C)nn1-c1ccc(CN(C)C)cc1` [(dp), 1-(3-(tert-butyl)-1-(4-((dimethylamino)methyl)phenyl)-1H-pyrazol-5-yl)-3-(2-(methylthio)-4-((3-oxo-3,4-dihydropyrido[2,3-b]pyrazin-8-yl)oxy)phenyl)urea] were not below 75% and less than 0.5 µM.
`CSc1cc(Oc2ccnc(NC(=O)CO)c2)ccc1NC(=O)Nc1cc(C(C)(C)C)nn1-c1ccccc1` [(dq), N-(4-(4-(3-(3-(tert-butyl)-1-phenyl-1H-pyrazol-5-yl)ureido)-3-(methylthio)phenoxy)pyridin-2-yl)-2-hydroxyacetamide] came in with an Emax not below 75% and a concentration giving a half-maximal response (EC50) of 0.5 to 1 µM.
On the same counts, the results for `O=C(Nc1ccc(Oc2ccnc3[nH]c(=O)cnc23)cc1F)Nc1cc(C2CC2)nn1-c1ccccc1` [(e), 1-(3-cyclopropyl-1-phenyl-1 H-pyrazol-5-yl)-3-(2-fluoro-4-((3-oxo-3,4-dihydropyrido[2,3-b]pyrazin-8-yl)oxy)phenyl)urea] are 25 to 50% and not below 5 µM.
Taken in the same sequence, the figures for `CC1(c2cc(NC(=O)Nc3ccc(Oc4ccnc5[nH]c(=O)cnc45)cc3F)n(-c3ccccc3)n2)COC1` [(f), 1-(2-fluoro-4-((3-oxo-3,4-dihydropyrido[2,3-b]pyrazin-8-yl)oxy)phenyl)-3-(3-(3-methyloxetan-3-yl)-1-phenyl-1 H-pyrazol-5-yl)urea] were 50 to 75% and not below 5 µM.
On the same counts, the results for `CC(C)Cc1cc(NC(=O)Nc2ccc(Oc3ccnc4[nH]c(=O)cnc34)cc2F)n(-c2ccccc2)n1` [(g), 1-(2-fluoro-4-((3-oxo-3,4-dihydropyrido[2,3-b]pyrazin-8-yl)oxy)phenyl)-3-(3-isobutyl-1-phenyl-1H-pyrazol-5-yl)urea] are not below 75% and 0.5 to 1 µM.
The molecule `CC(C)(C)c1cc(NC(=O)Nc2ccc(Oc3ccnc4[nH]c(=O)cnc34)cc2F)[nH]n1` [(h), 1-(3-(tert-butyl)-1H-pyrazol-5-yl)-3-(2-fluoro-4-((3-oxo-3,4-dihydropyrido[2,3-b]pyrazin-8-yl)oxy)phenyl)urea] showed an Emax of 25 to 50% and a concentration for a half-maximal effect (EC50) not below 5 µM.
Taken in the same sequence, the figures for `CC(C)(C)c1cc(NC(=O)Nc2ccc(Oc3ccnc4[nH]c(=O)cnc34)cc2F)n(Cc2ccccc2)n1` [(j), 1-(1-benzyl-3-(tert-butyl)-1 H-pyrazol-5-yl)-3-(2-fluoro-4-((3-oxo-3,4-dihydropyrido[2,3-b]pyrazin-8-yl)oxy)phenyl)urea] were 50 to 75% and 1 to 5 µM.
Taken in the same sequence, the figures for `CC(C)(C)c1cc(NC(=O)Nc2ccc(Oc3ccnc4[nH]c(=O)cnc34)cc2F)n(CCN2CCOCC2)n1` [(k), 1-(3-(tert-butyl)-1-(2-morpholinoethyl)-1 H-pyrazol-5-yl)-3-(2-fluoro-4-((3-oxo-3,4-dihydropyrido[2,3-b]pyrazin-8-yl)oxy)phenyl)urea] were 50 to 75% and 1 to 5 µM.
On the same counts, the results for `CC(C)(C)c1cc(NC(=O)Nc2ccc(Oc3ccnc4[nH]c(=O)cnc34)cc2F)n(-c2cccnc2)n1` [(l), 1-(3-(tert-butyl)-1-(pyridin-3-yl)-1 H-pyrazol-5-yl)-3-(2-fluoro-4-((3-oxo-3,4-dihydropyrido[2,3-b]pyrazin-8-yl)oxy)phenyl)urea] are 50 to 75% and 0.5 to 1 µM.
The molecule `CC(C)(C)c1cc(NC(=O)Nc2ccc(Oc3ccnc4[nH]c(=O)cnc34)cc2F)n(-c2ncccn2)n1` [(m), 1-(3-(tert-butyl)-1-(pyrimidin-2-yl)-1 H-pyrazol-5-yl)-3-(2-fluoro-4-((3-oxo-3,4-dihydropyrido[2,3-b]pyrazin-8-yl)oxy)phenyl)urea] came in with a maximum response (Emax) of 50 to 75% and a 50% effective concentration (EC50) not below 5 µM.
On the same counts, the results for `CC(C)(C)c1cc(NC(=O)Nc2ccc(Oc3ccnc4[nH]c(=O)cnc34)cc2F)n(-c2ccc3ncccc3c2)n1` [(n), 1-(3-(tert-butyl)-1-(quinolin-6-yl)-1 H-pyrazol-5-yl)-3-(2-fluoro-4-((3-oxo-3,4-dihydropyrido[2,3-b]pyrazin-8-yl)oxy)phenyl)urea] are not below 75% and less than 0.5 µM.
Taken in the same sequence, the figures for `CC(=O)n1nc(C(C)(C)C)cc1NC(=O)Nc1ccc(Oc2ccnc3[nH]c(=O)cnc23)cc1F` [(o), 1-(1-acetyl-3-(tert-butyl)-1 H-pyrazol-5-yl)-3-(2-fluoro-4-((3-oxo-3,4-dihydropyrido[2,3-b]pyrazin-8-yl)oxy)phenyl)urea] were 25 to 50% and not below 5 µM.
Take `CC(C)(C)c1nc(NC(=O)Nc2ccc(Oc3ccnc4[nH]c(=O)cnc34)cc2F)n(-c2ccccc2)n1` [(p), 1-(3-(tert-butyl)-1-phenyl-1 H-1,2,4-triazol-5-yl)-3-(2-fluoro-4-((3-oxo-3,4-dihydropyrido[2,3-b]pyrazin-8-yl)oxy)phenyl)urea]: the Emax was in the range of 25 to 50% and the half-maximal effective concentration (EC50) lay within 0.5 to 1 µM.
Turning to `CC(C)(C)c1nnc(NC(=O)Nc2ccc(Oc3ccnc4[nH]c(=O)cnc34)cc2F)s1` [(r), 1-(5-(tert-butyl)-1,3,4-thiadiazol-2-yl)-3-(2-fluoro-4-((3-oxo-3,4-dihydropyrido[2,3-b]pyrazin-8-yl)oxy)phenyl)urea], the maximal response (Emax) was not below 75% and the EC50 was not below 5 µM.
On the same counts, the results for `CC(C)(C)c1cc(NC(=O)Nc2ccc(Oc3ccnc4[nH]c(=O)cnc34)cc2)n(-c2ccccc2)n1` [(s), 1-(3-(tert-butyl)-1-phenyl-1 H-pyrazol-5-yl)-3-(4-((3-oxo-3,4-dihydropyrido[2,3-b]pyrazin-8-yl)oxy)phenyl)urea] are 50 to 75% and 0.5 to 1 µM.
Molecule `CC(C)(C)c1cc(NC(=O)Nc2ccc(Oc3ccnc4[nH]c(=O)cnc34)nc2)n(-c2ccccc2)n1` [(t), 1-(3-(tert-butyl)-1-phenyl-1 H-pyrazol-5-yl)-3-(6-((3-oxo-3,4-dihydropyrido[2,3-b]pyrazin-8-yl)oxy)pyridin-3-yl)urea] returned a maximal response (Emax) of 25 to 50% and an EC50 of less than 0.5 µM.
Taken in the same sequence, the figures for `CC(C)(C)c1cc(NC(=O)Nc2ccc(Oc3ccnc4[nH]c(=O)cnc34)cn2)n(-c2ccccc2)n1` [(u), 1-(3-(tert-butyl)-1-phenyl-1 H-pyrazol-5-yl)-3-(5-((3-oxo-3,4-dihydropyrido[2,3-b]pyrazin-8-yl)oxy)pyridin-2-yl)urea] were 25 to 50% and 1 to 5 µM.
Taken in the same sequence, the figures for `CC(C)(C)c1cc(NC(=O)Nc2ccc(Oc3ccnc4[nH]c(=O)cnc34)cc2C(F)(F)F)n(-c2ccccc2)n1` [(v), 1-(3-(tert-butyl)-1-phenyl-1H-pyrazol-5-yl)-3-(4-((3-oxo-3,4-dihydropyrido[2,3-b]pyrazin-8-yl)oxy)-2-(trifluoromethyl)phenyl)urea] were not below 75% and less than 0.5 µM.
`Cc1nc2c(Oc3ccc(NC(=O)Nc4cc(C(C)(C)C)nn4-c4ccccc4)c(F)c3)ccnc2c(=O)[nH]1` [(w), 1-(3-(tert-butyl)-1-phenyl-1 H-pyrazol-5-yl)-3-(2-fluoro-4-((2-methyl-4-oxo-3,4-dihydropyrido[3,2-d]pyrimidin-8-yl)oxy)phenyl)urea] returned an Emax of 50 to 75% and an EC50 of 1 to 5 µM.
